# Test results reported in patent publication US6737383B1, “Herbicidal oxadiazolidines” (priority 1999, dated 2004).
# What was measured:
# [1] = tested on: pigweed; assay: Test B pre/postemergence pigweed; assay type: in vivo, Amaranthus retroflexus
# Summary of the method: (§1)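 Response is a visual 0-to-10 score relative to untreated plants, where 0 means no effect and 10 means complete control, taken twelve to sixteen days after application. Treatments went onto soil at planting and onto foliage of 1- to 4-leaf plants, using a surfactant-containing non-phytotoxic solvent.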
# [2] = tested on: morningglory; assay: Test B pre/postemergence morningglory; assay type: in vivo, Ipomoea hederacea
# Summary of the method: as §1
# [3] = tested on: cocklebur; assay: Test B pre/postemergence cocklebur; assay type: in vivo, Xanthium strumarium
# Summary of the method: as §1
# [4] = tested on: rice; assay: Test B flood test rice; assay type: in vivo, Oryza sativa
# Summary of the method: (§2)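 Read-out is a visual response score from 0 (no effect) to 10 (complete control), assigned by comparison with untreated controls. Treatment was applied at the 2-leaf stage, and plants stayed in the greenhouse for twelve to sixteen days before scoring.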
# [5] = tested on: wild oat; assay: Test B pre/postemergence wild oat; assay type: in vivo, Avena fatua
# Summary of the method: as §1
# [6] = tested on: corn; assay: Test B pre/postemergence corn; assay type: in vivo, Zea mays
# Summary of the method: as §1
# [7] = tested on: rape; assay: Test B pre/postemergence rape; assay type: in vivo, Brassica napus
# Summary of the method: as §1
# [8] = tested on: sugar beet; assay: Test B pre/postemergence sugar beet; assay type: in vivo, Beta vulgaris
# Summary of the method: as §1
# [9] = tested on: bamyardgrass; assay: Test B flood test barnyardgrass; assay type: in vivo, Echinochloa crus-galli
# Summary of the method: as §2
# [10] = tested on: surinam grass; assay: Test B pre/postemergence surinam grass; assay type: in vivo, Brachiaria decumbens
# Summary of the method: as §1
# [11] = tested on: giant foxtail; assay: Test B pre/postemergence giant foxtail; assay type: in vivo, Setaria faberii
# Summary of the method: as §1
# [12] = tested on: blackgrass; assay: Test B pre/postemergence blackgrass; assay type: in vivo, Alopecurus myosuroides
# Summary of the method: as §1
# [13] = tested on: velvetleaf; assay: Test B pre/postemergence velvetleaf; assay type: in vivo, Abutilon theophrasti
# Summary of the method: as §1
# [14] = tested on: smallflower flatsedge; assay: Test B flood test smallflower flatsedge; assay type: in vivo, Cyperus difformis; conditions: for S. Flatsedge plant response rating: scale of 0 to 10 where 0 is no effect and 10 is complete control
# Summary of the method: as §2
# [15] = tested on: bedstraw; assay: Test B pre/postemergence bedstraw; assay type: in vivo, Galium aparine
# Summary of the method: as §1
# [16] = tested on: crabgrass; assay: Test B pre/postemergence crabgrass; assay type: in vivo, Digitaria sanguinalis
# Summary of the method: as §1
# [17] = Postemergence, Rate 125 g/ha, scale of 0 to 10 where 0 is no effect and 10 is complete control
# [18] = Preemergence, Rate 62 g/ha, scale 0 to 10 (0 no effect, 10 complete control)
# [19] = Preemergence, Rate 125 g/ha, 0 is no effect, 10 is complete control
# [20] = Preemergence, Rate 250 g/ha, scale 0 to 10, 0 is no effect, 10 is complete control
# [21] = Preemergence, Rate 500 g/ha, scale 0 to 10 (0 no effect, 10 complete control)
# [22] = Rate 62 g/ha, Postemergence, scale of 0 to 10 where 0 is no effect and 10 is complete control
# [23] = Rate 250 g/ha, Postemergence, scale 0 to 10, 0 is no effect, 10 is complete control
# [24] = Rate 500 g/ha, Postemergence, scale 0 to 10
# [25] = Postemergence (flood test species), Rate 125 g/ha, scale of 0 to 10 where 0 is no effect and 10 is complete control
# [26] = Rate 31 g/ha, Postemergence section (flood test species), scale 0 to 10
# [27] = Rate 62 g/ha, Postemergence section, flood test species, scale of 0 to 10 where 0 is no effect and 10 is complete control
# [28] = Rate 250 g/ha, Postemergence (flood test), scale 0 to 10, 0 is no effect, 10 is complete control
smiles,measurement,setting,value
CC(C)N(C(=O)n1oc(=O)n(C)c1=O)c1ccc(Cl)cc1 [Compound 137],Redroot pigweed plant response rating,[1]; [17],4
same,Redroot pigweed plant response rating,[1]; [18],9
same,Redroot pigweed plant response rating (0 to 10 scale),[1]; [19],10
same,Redroot pigweed plant response rating,[1]; [20],10
same,Redroot pigweed plant response rating,[1]; [21],10
same,Redroot pigweed plant response rating,[1]; [22],2
same,"Plant response rating, Redroot pigweed",[1]; [23],5
same,Redroot pigweed plant response rating,[1]; [24],6
same,Morningglory plant response rating,[2]; [17],7
same,Morningglory plant response rating,[2]; [18],0
same,Morningglory plant response rating (0 to 10 scale),[2]; [19],0
same,Morningglory plant response rating,[2]; [20],0
same,Morningglory plant response rating,[2]; [21],1
same,Morningglory plant response rating,[2]; [22],7
same,"Plant response rating, Morningglory",[2]; [23],7
same,Morningglory plant response rating,[2]; [24],8
same,Cocklebur plant response rating,[3]; [17],0
same,Cocklebur plant response rating,[3]; [18],0
same,Cocklebur plant response rating (0 to 10 scale),[3]; [19],0
same,Cocklebur plant response rating,[3]; [20],0
same,Cocklebur plant response rating,[3]; [21],0
same,Cocklebur plant response rating,[3]; [22],0
same,"Plant response rating, Cocklebur",[3]; [23],3
same,Cocklebur plant response rating,[3]; [24],4
same,Rice plant response rating,[4]; [25],0
same,Rice plant response rating,[4]; [26],0
same,Rice plant response rating,[4]; [27],0
same,"Plant response rating, Rice",[4]; [28],0
same,Wild oats plant response rating,[5]; [17],2
same,Wild oats plant response rating,[5]; [18],5
same,Wild oats plant response rating (0 to 10 scale),[5]; [19],8
same,Wild oats plant response rating,[5]; [20],9
same,Wild oats plant response rating,[5]; [21],10
same,Wild oats plant response rating,[5]; [22],1
same,"Plant response rating, Wild oats",[5]; [23],4
same,Wild oats plant response rating,[5]; [24],5
same,Corn plant response rating,[6]; [17],0
same,Corn plant response rating,[6]; [18],0
same,Corn plant response rating (0 to 10 scale),[6]; [19],0
same,Corn plant response rating,[6]; [20],0
same,Corn plant response rating,[6]; [21],4
same,Corn plant response rating,[6]; [22],0
same,"Plant response rating, Corn",[6]; [23],3
same,Corn plant response rating,[6]; [24],5
same,Rape plant response rating,[7]; [18],0
same,Rape plant response rating (0 to 10 scale),[7]; [19],4
same,Rape plant response rating,[7]; [20],10
same,Rape plant response rating,[7]; [21],10
same,Rape plant response rating,[7]; [22],0
same,"Plant response rating, Rape",[7]; [23],6
same,Rape plant response rating,[7]; [24],7
same,Sugarbeets plant response rating,[8]; [17],3
same,Sugarbeets plant response rating,[8]; [18],6
same,Sugarbeets plant response rating (0 to 10 scale),[8]; [19],10
same,Sugarbeets plant response rating,[8]; [20],10
same,Sugarbeets plant response rating,[8]; [21],10
same,Sugarbeets plant response rating,[8]; [22],3
same,"Plant response rating, Sugarbeets",[8]; [23],5
same,Sugarbeets plant response rating,[8]; [24],6
same,Barnyardgrass plant response rating,[9]; [25],0
same,Barnyardgrass plant response rating,[9]; [26],0
same,Barnyardgrass plant response rating,[9]; [27],0
same,"Plant response rating, Barnyardgrass",[9]; [28],0
same,B. signalgrass plant response rating,[10]; [17],4
same,B. signalgrass plant response rating,[10]; [18],3
same,B. signalgrass plant response rating (0 to 10 scale),[10]; [19],5
same,B. signalgrass plant response rating,[10]; [20],7
same,B. signalgrass plant response rating,[10]; [21],9
same,B. signalgrass plant response rating,[10]; [22],0
same,"Plant response rating, B. signalgrass",[10]; [23],5
same,B. signalgrass plant response rating,"[10]; Rate 500 g/ha, Postemergence, scale of 0 to 10 where 0 is no effect and 10 is complete control",8
same,Giant foxtail plant response rating,[11]; [17],8
same,Giant foxtail plant response rating,[11]; [18],8
same,Giant foxtail plant response rating (0 to 10 scale),[11]; [19],9
same,Giant foxtail plant response rating,[11]; [20],10
same,Giant foxtail plant response rating,[11]; [21],10
same,Giant foxtail plant response rating,[11]; [22],8
same,"Plant response rating, Giant foxtail",[11]; [23],9
same,Giant foxtail plant response rating,[11]; [24],9
same,Blackgrass plant response rating,[12]; [17],6
same,Blackgrass plant response rating,[12]; [18],7
same,Blackgrass plant response rating (0 to 10 scale),[12]; [19],9
same,Blackgrass plant response rating,[12]; [20],9
same,Blackgrass plant response rating,[12]; [21],10
same,Blackgrass plant response rating,[12]; [22],5
same,"Plant response rating, Blackgrass",[12]; [23],8
same,Blackgrass plant response rating,[12]; [24],8
same,Velvetleaf plant response rating,[13]; [17],0
same,Velvetleaf plant response rating,[13]; [18],3
same,Velvetleaf plant response rating (0 to 10 scale),[13]; [19],6
same,Velvetleaf plant response rating,[13]; [20],7
same,Velvetleaf plant response rating,[13]; [21],10
same,Velvetleaf plant response rating,[13]; [22],0
same,"Plant response rating, Velvetleaf",[13]; [23],4
same,Velvetleaf plant response rating,[13]; [24],5
same,S. Flatsedge plant response rating,"[14]; Postemergence (flood test species), Rate 125 g/ha",0
same,S. Flatsedge plant response rating,"[14]; Rate 62 g/ha, Postemergence section, flood test species",0
same,"Plant response rating, S. Flatsedge",[14]; [28],0
same,Bedstraw plant response rating,[15]; [17],8
same,Bedstraw plant response rating,[15]; [18],4
same,Bedstraw plant response rating (0 to 10 scale),[15]; [19],7
same,Bedstraw plant response rating,[15]; [20],7
same,Bedstraw plant response rating,[15]; [21],10
same,Bedstraw plant response rating,[15]; [22],4
same,"Plant response rating, Bedstraw",[15]; [23],8
same,Crabgrass plant response rating,[16]; [17],8
same,Crabgrass plant response rating,[16]; [18],8
same,Crabgrass plant response rating (0 to 10 scale),[16]; [19],10
same,Crabgrass plant response rating,[16]; [20],10
same,Crabgrass plant response rating,[16]; [21],10
same,Crabgrass plant response rating,[16]; [22],7
same,"Plant response rating, Crabgrass",[16]; [23],9
same,Crabgrass plant response rating,[16]; [24],9
